According to PubChem BioAssay AID330 (DTP/NCI, 2004):
Values joined by “and” are separate entries in the source; they are usually repeats but may differ in a detail not shown here. Equal entries are not always repeated. Toxic doses and inconclusive results are not listed.

Test system: P388 leukemia ip, CD2F1 mice, survival T/C
Test: NCI In Vivo Anticancer Drug Screen. Data for tumor model P388 Leukemia (intraperitoneal) in CD2F1 (CDF1) mice
Conditions: endpoint: median survival time, higher = longer survival
In short: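 Mice carrying the transplanted tumor received test compound or vehicle. Survival was recorded in each group, and the value is the treated-group measurement divided by that of the vehicle-treated control group.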

[1] = dose: 60.0 mg/kg/injection, schedule: Q01DX005 (ip), vehicle: saline with Tween-80
[2] = dose: 100.0 mg/kg/injection, schedule: Q04DX002 (ip), vehicle: saline with Tween-80
[3] = dose: 50.0 mg/kg/injection, schedule: Q01DX009 (ip), vehicle: saline with Tween-80
[4] = dose: 200.0 mg/kg/injection, schedule: Q01DX009 (ip), vehicle: saline with Tween-80
[5] = dose: 25.0 mg/kg/injection, schedule: Q04DX003 (ip), vehicle: saline
[6] = dose: 50.0 mg/kg/injection, schedule: Q04DX003 (ip), vehicle: saline

COC(=O)[C@@H]1CON(Cc2ccccc2)C1CC1(C)OCCO1 (stereo partly specified)
T/C [1]: 103 % of control
T/C (dose: 120.0 mg/kg/injection, schedule: Q01DX005 (ip), vehicle: saline with Tween-80): 104 % of control
T/C (dose: 240.0 mg/kg/injection, schedule: Q01DX005 (ip), vehicle: saline with Tween-80): 109 % of control

[Se]=P(c1ccccc1)(c1ccccc1)N1CC1
T/C (dose: 12.5 mg/kg/injection, schedule: Q01DX001 (ip), vehicle: Klucel (hydroxypropylcellulose) (HPC)): 99 % of control
T/C (dose: 25.0 mg/kg/injection, schedule: Q01DX001 (ip), vehicle: Klucel (hydroxypropylcellulose) (HPC)): 104 % of control
T/C (dose: 50.0 mg/kg/injection, schedule: Q01DX001 (ip), vehicle: Klucel (hydroxypropylcellulose) (HPC)): 101 % of control

COc1cccc2c1C(=O)c1c(O)c3c(c(O)c1C2=O)C[C@@](O)(C(C)O)C[C@@H]3OC1CC(N2CCOCC2)C(O)C(C)O1 (stereo partly specified)
T/C (dose: 25.0 micrograms/kg/injection, schedule: Q04DX003 (ip), vehicle: water): 101 % of control
T/C (dose: 50.0 micrograms/kg/injection, schedule: Q04DX003 (ip), vehicle: water): 97 % of control
T/C (dose: 100.0 micrograms/kg/injection, schedule: Q04DX003 (ip), vehicle: water): 100 % of control and 118 % of control

[Cl][Pt+2][Cl].[NH-]c1ccc(C(=O)O)cc1[NH-]
T/C (dose: 6.25 mg/kg/injection, schedule: Q04DX002 (ip), vehicle: saline with Tween-80): 100 % of control
T/C (dose: 12.5 mg/kg/injection, schedule: Q04DX002 (ip), vehicle: saline with Tween-80): 102 % of control
T/C (dose: 25.0 mg/kg/injection, schedule: Q04DX002 (ip), vehicle: saline with Tween-80): 100 % of control
T/C (dose: 50.0 mg/kg/injection, schedule: Q04DX002 (ip), vehicle: saline with Tween-80): 110 % of control
T/C [2]: 120 % of control

ClCSc1nc2cc(Cl)ccc2s1
T/C [3]: 95 % of control
T/C (dose: 100.0 mg/kg/injection, schedule: Q01DX009 (ip), vehicle: saline with Tween-80): 100 % of control
T/C [4]: 95 % of control

COc1ccc(OC)c(C(=O)C[n+]2ccccc2)c1
T/C (dose: 12.5 mg/kg/injection, schedule: Q04DX003 (ip), vehicle: saline): 95 % of control
T/C [5]: 90 % of control
T/C [6]: 100 % of control

O=C(O)CCc1c[nH]c2ccc(N(CCCl)CCCl)cc12
T/C (dose: 0.08 mg/kg/injection, schedule: Q04DX003 (ip), vehicle: saline with Tween-80): 163 % of control
T/C (dose: 0.15 mg/kg/injection, schedule: Q04DX003 (ip), vehicle: saline with Tween-80): 100 % of control
T/C (dose: 0.25 mg/kg/injection, schedule: Q01DX009 (ip), vehicle: saline): 104 % of control
T/C (dose: 0.33 mg/kg/injection, schedule: Q04DX003 (ip), vehicle: saline with Tween-80): 177 % of control
T/C (dose: 0.5 mg/kg/injection, schedule: Q04DX003 (ip), vehicle: saline with Tween-80): 177 % of control
T/C (dose: 0.75 mg/kg/injection, schedule: Q04DX003 (ip), vehicle: saline with Tween-80): 104 % of control

Cc1c(Cc2c(C)n(C)n(-c3ccccc3)c2=O)c(=O)n(-c2ccccc2)n1C
T/C (dose: 25.0 mg/kg/injection, schedule: Q01DX009 (ip), vehicle: Klucel (hydroxypropylcellulose) (HPC)): 100 % of control and 103 % of control
T/C (dose: 50.0 mg/kg/injection, schedule: Q01DX009 (ip), vehicle: Klucel (hydroxypropylcellulose) (HPC)): 106 % of control and 89 % of control
T/C (dose: 100.0 mg/kg/injection, schedule: Q01DX009 (ip), vehicle: Klucel (hydroxypropylcellulose) (HPC)): 99 % of control and 88 % of control

COc1ccc(NC(=O)C2C(=O)C(=O)N(c3ccc(OC)cc3)C2=O)cc1 (stereo unspecified)
T/C [2]: 100 % of control
T/C (dose: 200.0 mg/kg/injection, schedule: Q04DX002 (ip), vehicle: saline with Tween-80): 101 % of control

CCOC(=O)N(C)C(=O)NC
T/C (dose: 50.0 mg/kg/injection, schedule: Q01DX009 (ip), vehicle: saline): 103 % of control and 105 % of control
T/C (dose: 100.0 mg/kg/injection, schedule: Q01DX009 (ip), vehicle: saline): 103 % of control and 109 % of control
T/C (dose: 200.0 mg/kg/injection, schedule: Q01DX009 (ip), vehicle: saline): 100 % of control and 104 % of control

N#CC1=C(Nc2ccccc2)SC(c2cccs2)NC1=O (stereo unspecified)
T/C (dose: 60.0 mg/kg/injection, schedule: Q01DX005 (ip), vehicle: Klucel (hydroxypropylcellulose) (HPC)): 108 % of control
T/C (dose: 120.0 mg/kg/injection, schedule: Q01DX005 (ip), vehicle: Klucel (hydroxypropylcellulose) (HPC)): 108 % of control

COc1ccc(C(c2c(O)c3ccccc3oc2=O)N2CCOCC2)cc1 (stereo unspecified)
T/C (dose: 15.0 mg/kg/injection, schedule: Q01DX005 (ip), vehicle: saline with Tween-80): 99 % of control
T/C (dose: 30.0 mg/kg/injection, schedule: Q01DX005 (ip), vehicle: saline with Tween-80): 97 % of control
T/C [1]: 100 % of control and 94 % of control

Oc1ccc(N=Nc2c(-c3ccccc3)nn(C(=S)S)c2-c2ccccc2)cc1
T/C (dose: 50.0 mg/kg/injection, schedule: Q01DX005 (ip), vehicle: saline with Tween-80): 103 % of control
T/C (dose: 100.0 mg/kg/injection, schedule: Q01DX005 (ip), vehicle: saline with Tween-80): 102 % of control
T/C (dose: 200.0 mg/kg/injection, schedule: Q01DX005 (ip), vehicle: saline with Tween-80): 101 % of control

COc1ccc2cc1Oc1ccc(cc1)C[C@H]1c3c(cc(OC)c(O)c3Oc3cc4c(cc3OC)CCN(C)[C@@H]4C2)CCN1C
T/C (dose: 25.0 mg/kg/injection, schedule: Q01DX001 (ip), vehicle: saline): 101 % of control
T/C (dose: 50.0 mg/kg/injection, schedule: Q01DX001 (ip), vehicle: saline): 106 % of control
T/C (dose: 100.0 mg/kg/injection, schedule: Q01DX001 (ip), vehicle: saline): 106 % of control
T/C (dose: 200.0 mg/kg/injection, schedule: Q01DX001 (ip), vehicle: saline): 100 % of control

CC(C)NCCCNc1c2ccccc2nc2cccc([N+](=O)[O-])c12
T/C (dose: 0.09 mg/kg/injection, schedule: Q01DX009 (ip), vehicle: saline): 100 % of control and 86 % of control
T/C (dose: 0.19 mg/kg/injection, schedule: Q01DX009 (ip), vehicle: saline): 100 % of control and 97 % of control
T/C (dose: 0.39 mg/kg/injection, schedule: Q01DX009 (ip), vehicle: saline): 100 % of control and 106 % of control and 92 % of control
T/C (dose: 0.79 mg/kg/injection, schedule: Q01DX009 (ip), vehicle: saline): 105 % of control and 123 % of control and 90 % of control
T/C (dose: 1.56 mg/kg/injection, schedule: Q01DX009 (ip), vehicle: saline): 109 % of control

O=C(O)c1cccc(-n2ncc(Cl)c(Cl)c2=O)c1
T/C (dose: 12.5 mg/kg/injection, schedule: Q01DX009 (ip), vehicle: saline with Tween-80): 113 % of control
T/C (dose: 25.0 mg/kg/injection, schedule: Q01DX009 (ip), vehicle: saline with Tween-80): 108 % of control
T/C [3]: 99 % of control and 104 % of control
T/C [4]: 88 % of control

COc1ccc(C(c2cc(C(C)(C)C)c(O)c(C(C)(C)C)c2)n2ccnc2)cc1 (stereo unspecified)
T/C (dose: 50.0 mg/kg/injection, schedule: Q01DX005 (ip), vehicle: distilled water + alcohol): 105 % of control
T/C (dose: 100.0 mg/kg/injection, schedule: Q01DX005 (ip), vehicle: distilled water + alcohol): 103 % of control
T/C (dose: 200.0 mg/kg/injection, schedule: Q01DX005 (ip), vehicle: distilled water + alcohol): 99 % of control

C=CCOC1C=C(C)C(=O)O1 (stereo unspecified)
T/C (dose: 41.5 mg/kg/injection, schedule: Q01DX005 (ip), vehicle: saline with Tween-80): 100 % of control
T/C (dose: 83.0 mg/kg/injection, schedule: Q01DX005 (ip), vehicle: saline with Tween-80): 103 % of control
T/C (dose: 166.0 mg/kg/injection, schedule: Q01DX005 (ip), vehicle: saline with Tween-80): 109 % of control

CN(N=O)C1=NC2(CCCCC2)P(=O)(NNc2ncccn2)O1 (stereo unspecified)
T/C (dose: 60.0 mg/kg/injection, schedule: Q01DX005 (ip), vehicle: saline): 101 % of control
T/C (dose: 120.0 mg/kg/injection, schedule: Q01DX005 (ip), vehicle: saline): 102 % of control

Cc1nc(C)n2c(C)nnc2c1C
T/C [5]: 101 % of control
T/C [6]: 111 % of control
T/C (dose: 100.0 mg/kg/injection, schedule: Q04DX003 (ip), vehicle: saline): 109 % of control
